# According to patent US20180335421A1, “METHOD FOR SCREENING INHIBITORS TARGETING ANTI-APOPTOTIC SURVIVAL PATHWAYS” (Memorial Sloan-Kettering Cancer Center, priority 2015, published 2018):
# B1: BAD: pro-apoptotic BH3-only BCL-2 family protein that binds to BCL-XL and BCL-2 but not MCL-1 (protein, UniProt Q92934 1-168, looked up)
# Bcl2-associated agonist of …: MFQIPEFEPSEQEDSSSAERGLGPSPAGDGPSGSGKHHRQAPGLLWDASHQQEQPTSSSHHGGAGAVEIRSRHSSYPAGTEDDEGMGEEPSPFRGRSRSAPPNLWAAQRYGRELRRMSDEFVDSFKKGLPRPKSAGTATQMRQSSSWTRVFQSWWDRNLGRGSSAPSQ
# Tests used:
# [1] = system: MCL-1-IRES-BIM or MCL-1-IRES-PUMA MEFs; assay: Apoptosis induction by BH3-only proteins in engineered MEFs; format: cell-based, mouse; conditions: MCL-1-addicted MEFs; FIGS. 2A and 2B
# From the text: (§1) Cellular dependency on BCL-2, BCL-XL or MCL-1 for survival is governed by the relative abundance among these proteins (FIG. 1). Intricate interplays among the BCL-2 subfamilies govern cellular survival/death, and also provide a molecular blueprint concerning the clinical application of BH3-mimetics in killing cancer cells. Using MEFs that express different combinations of anti-apoptotic BCL-2 members and activator BH3s, a system has been built that can distinguish between the inhibition of BCL-2/BCL-XL and MCL-1 by BAD/BAD mimetics and […]/NOXA mimetics, respectively (FIGS. 2A and 2B).
# (§2) Importantly, this system mimics the “primed” cell death state of many cancers with abundant pre-assembled complexes of BCL-XL/BIM, BCL-XL/PUMA, BCL-2/BIM, BCL-2/PUMA, MCL-1/BIM or MCL-1/PUMA. […] In addition, compounds that downregulate MCL-1 mRNA and/or protein or induce endogenous NOXA, BIM, or PUMA will trigger similar death patterns.
# [2] = system: wild-type cells; assay: Sensitivity of wild-type cells to BH3-only proteins; format: cell-based, mouse; conditions: wild-type cells lacking pre-assembled cell death priming complexes; FIG. 2B
# From the text: as §2
# [3] = biological target: MCL-1 (Homo sapiens, UniProt Q07820); conditions: background statement; cited from earlier work
# MCL-1, sequence (Q07820 whole entry): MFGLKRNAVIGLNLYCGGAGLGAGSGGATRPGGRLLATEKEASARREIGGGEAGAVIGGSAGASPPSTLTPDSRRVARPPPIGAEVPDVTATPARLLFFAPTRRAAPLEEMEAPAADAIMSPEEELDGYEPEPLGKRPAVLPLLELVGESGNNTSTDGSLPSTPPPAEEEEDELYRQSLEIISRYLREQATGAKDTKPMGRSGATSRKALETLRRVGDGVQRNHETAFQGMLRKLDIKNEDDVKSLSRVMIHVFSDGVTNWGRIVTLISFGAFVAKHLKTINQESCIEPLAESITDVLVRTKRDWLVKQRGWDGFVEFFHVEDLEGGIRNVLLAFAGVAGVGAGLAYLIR
# [4] = system: BCL-2-addicted H23 cells; assay: Treatment of engineered H23 cell lines with BCL-2, BCL-XL and MCL-1 inhibitors to confirm selective addiction; format: cell-based, human; conditions: BCL-2-addicted H23 cells (BCL-2 overexpression, MCL-1 knockdown); FIG. 3B
# [5] = system: parental H23 cells; assay: Treatment of parental (MCL-1-addicted) H23 cells with BCL-2, BCL-XL and MCL-1 inhibitors; format: cell-based, human; conditions: parental H23 cells (MCL-1-addicted); FIG. 3B
# [6] = system: A549 cells; assay: ABT-737-induced apoptosis after knockdown of MCL-1; format: cell-based, human; conditions: A549 cells with knockdown of MCL-1
# [7] = system: BCL-XL-addicted H23 cells; assay: Treatment of engineered H23 cell lines with BCL-2, BCL-XL and MCL-1 inhibitors to confirm selective addiction; conditions: BCL-XL-addicted H23 cells (BCL-XL overexpression, MCL-1 knockdown); FIG. 3B
# From the text: Isogenic H23 cancer cell lines with selective addiction to MCL-1, BCL-2, or BCL-XL.
# [8] = system: BCL-XL-IRES-BIM, BCL-XL-IRES-PUMA, BCL-2-IRES-BIM or BCL-2-IRES-PUMA MEFs; assay: Apoptosis induction by BH3-only proteins in engineered MEFs; format: cell-based, mouse; conditions: BCL-XL- or BCL-2-addicted MEFs; FIGS. 2A and 2B
# From the text: as §1, §2
molecule,measurement,setting,value
"NOXA: pro-apoptotic BH3-only member of the BCL-2 protein family that specifically inactivates MCL-1 (MPGKKARKNAQPSPARAPAELEVECATQLRRFGDKLNFRQKLLNLISKLFCSGT; UniProt Q13794 1-54, looked up)",induction of apoptosis,[1],selectively induces apoptosis
same,sensitivity of wild-type cells,[2],less sensitive
CC1(C)CCC(c2ccc(Cl)cc2)=C(CN2CCN(c3ccc(C(=O)NS(=O)(=O)c4ccc(N[C@H](CCN5CCOCC5)CSc5ccccc5)c(S(=O)(=O)C(F)(F)F)c4)cc3)CC2)C1 [ABT-263],inhibition of MCL-1,[3],fail to inhibit
"CN(C)CC[C@H](CSc1ccccc1)Nc1ccc(S(=O)(=O)NC(=O)c2ccc(N3CCN(Cc4ccccc4-c4ccc(Cl)cc4)CC3)cc2)cc1[N+](=O)[O-] [ABT-737, (R)-4-(4-((4′-chloro-[1,1′-biphenyl]-2-yl)methyl)piperazin-1-yl)-N-((4-((-4-(dimethylamino)-1-(phenylthio)butan-2-yl)amino)-3-nitrophenyl)sulfonyl)benzamide]",sensitivity of cells to inhibitor,[4],sensitive
same,sensitivity of cells to inhibitor,[5],only sensitive to inhibitors of MCL-1
same,susceptibility to ABT-737-induced apoptosis,[6],susceptible
same,sensitivity of cells to inhibitor,[7],sensitive
B1,induction of apoptosis,[8],induces apoptosis
same,sensitivity of wild-type cells,[2],less sensitive
